Assay results: US20130172311A1, “Substituted heterocyclyl benzyl pyrazoles, and use thereof” (BAYER INTELLECTUAL PROPERTY GMBH, priority 2010, published 2013)
One block for each compound: values may come before it.

How the values were obtained:
[1] = test system: luciferase reporter under the control of an HIF-responsive sequence in HCT 116 cells; assay: HIF luciferase assay; type: cell-based; conditions: Homo sapiens, HCT 116 reporter cells, hypoxia chamber (1% O2), 24 h
Method: HCT 116 cells were stably transfected with a plasmid which contained a luciferase reporter under the control of an HIF-responsive sequence. These cells were sown in microtitre plates [20 000 cells/cavity in RPMI 1640 medium with 10% foetal calf serum (FCS) and 100 μg/ml of hygromycin]. They were incubated overnight under standard conditions (5% CO2, 21% O2, 37° C., moistened). The following morning the cells were incubated with different concentrations of the test substances (0-10 μmol/l) in a hypoxia chamber (1% O2). After 24 h, Bright Glo reagent (Promega, Wis., USA) was added in accordance with the manufacturer's instructions, and after 5 min the luminescence was measured. Cells which were incubated under normoxia served as background controls.

[2] = Pharmacokinetic parameters after peroral administration in rats; type: in vivo; conditions: for AUCnorm (dose-normalized exposure) / bioavailability: 1-3 mg/kg, solution in Solutol/ethanol/water; for bioavailability: rat, plasma, po, read-out: F (bioavailability)
Method: (§1) The substance to be examined was administered to animals (for example mice or rats) intravenously as a solution (for example in corresponding plasma with a small addition of DMSO or in a PEG/ethanol/water mixture), and peroral administration was effected as a solution (for example in Solutol/ethanol/water or PEG/ethanol/water mixtures) or as a suspension (e.g. in tylose), in each case via a gavage. After administration of the substance, blood was taken from the animals at fixed times. The blood was heparinized, then plasma was obtained therefrom by centrifugation. The substance was quantified analytically in the plasma via LC-MS/MS. From the plasma concentration/time plots determined in this way, using an internal standard and with the aid of a validated computer program, the pharmacokinetic parameters, such as AUC (area under the concentration/time curve), Cmax, (maximum plasma concentration), t1/2 (half life), VSS (distribution volume) and CL (clearance), and the absolute and relative bioavailability F and Frei (i.v./p.o. comparison or comparison of suspension to solution after p.o. administration), were calculated.
To determine the active ingredient release from a prodrug compound, the prodrug was administered either intravenously or perorally, as described above, and the concentrations both of the prodrug and of the active ingredient released were quantified in the processed plasma.
The substance to be examined was administered perorally to rats, in each case in amounts between 1 and 3 mg/kg as a solution in Solutol/ethanol/water (40:10:50 or 40:20:40). The kinetic parameters determined for Working Example 1 are shown below by way of example for the inventive compounds [AUCnorm=dose-normalized exposure (area under the concentration/time curve)]:
The second row in this table gives the pharmacokinetic parameters for Example 1, as obtained after peroral administration of the prodrug compound from Example 15 (1 mg/kg of crystalline substance as a tylose suspension in water).

[3] = pH-dependent hydrolysis stability; type: physicochemical; conditions: HPLC area %; for % Example 1 active ingredient: released from prodrug Example 15
Method: 0.3 mg of the test substance (prodrug) was weighed into a 2 ml HPLC vial, and 0.6 ml of acetonitrile or acetonitrile/DMSO mixture (with up to 20 percent by volume of DMSO) was added. To dissolve the substance, the sample vessel was placed into an ultrasound bath for approx. 10 seconds. Subsequently, 1.0 ml of the particular aqueous buffer solution was added (commercially available buffer solutions of pH 2, 4, 6.5, 8 and 10) and the sample was treated again in the ultrasound bath. Over a period of 24 hours at 37° C., 5 μl of the sample solution were analysed by HPLC every hour for its content of unchanged prodrug or active ingredient released therefrom by hydrolysis. Quantification was effected via the area percentages of the corresponding HPLC peaks.

[4] = Plasma stability in vitro, rat plasma; type: in vitro ADME; conditions: 37°C
Method: (§2) 1 mg of the test substance (prodrug) was weighed into a 2 ml HPLC vial, and 1.5 ml of DMSO and 1 ml of water were added. To dissolve the substance, the sample vessel was placed into an ultrasound bath for approx. 10 seconds. 0.5 ml of rat plasma or human plasma at 37° C. was added to 0.5 ml of this solution. The sample was agitated and approx. 10 μl were taken for a first analysis (time t0). […] The sample was kept at 37° C. over the test period. Characterization and quantification were effected by HPLC.

[5] = Plasma stability in vitro, human plasma; type: in vitro ADME; conditions: 37°C
Method: as §2

[6] = Pharmacokinetic parameters after intravenous administration in rats; type: in vivo; conditions: rat, plasma, i.v., comparison compound, read-out: CLplasma (plasma clearance) (converted)
Method: as §1
The substance to be examined was administered intravenously to rats, in each case in amounts between 0.3 and 1.0 mg/kg as a solution in plasma which contained up to 2% DMSO.

IC50 [1]: 0.6 nM
Compound: Cc1cc(-c2nc(-c3ccc(C4(C(F)(F)F)CC4)cc3)no2)nn1Cc1cccc(N2CC(O)C2)c1 [Example 2, 1-(3-{[5-Methyl-3-(3-{4-[1-(trifluoromethyl)cyclopropyl]phenyl}-1,2,4-oxadiazol-5-yl)-1H-pyrazol-1-yl]methyl}phenyl)azetidin-3-ol]

IC50 [1]: 0.7 nM
AUCnorm (dose-normalized exposure) ([2]; p.o.): 0.43 kg·h/L
AUCnorm of Example 1 after administration of prodrug Example 15 ([2]; p.o., prodrug Example 15, 1 mg/kg crystalline substance as tylose suspension in water): 0.35 kg·h/L
bioavailability [2]: 68%
% Example 1 active ingredient ([3]; pH 2, 37°C, after 12 h): 6%
% Example 1 active ingredient ([3]; pH 4, 37°C, after 12 h): 9%
% Example 1 active ingredient ([3]; pH 6.5, 37°C, 0 h): 3%
% Example 1 active ingredient ([3]; pH 6.5, 37°C, 2 h): 7%
% Example 1 active ingredient ([3]; pH 6.5, 37°C, 4 h): 10%
% Example 1 active ingredient ([3]; pH 6.5, 37°C, 6 h): 13%
% Example 1 active ingredient ([3]; pH 6.5, 37°C, 12 h): 22%
% Example 1 active ingredient ([3]; pH 6.5, 37°C, 24 h): 35%
% Example 1 active ingredient ([3]; pH 8, 37°C, after 12 h): 30%
% Example 1 active ingredient ([3]; pH 10, 37°C, after 12 h): 78%
Compound: Cc1cc(-c2nc(-c3ccc(OC(F)(F)F)cc3)no2)nn1Cc1cccc(N2CC(O)C2)c1 [Example 1, 1-{3-[(5-Methyl-3-{3-[4-(trifluoromethoxy)phenyl]-1,2,4-oxadiazol-5-yl}-1H-pyrazol-1-yl)methyl]phenyl}azetidin-3-ol]

IC50 [1]: 0.3 nM
Compound: Cc1cc(-c2nc(-c3ccc(C4(C(F)(F)F)CC4)cc3)no2)nn1Cc1cccc(N2CCC(C#N)CC2)c1 [Example 12, 1-(3-{[5-Methyl-3-(3-{4-[1-(trifluoromethyl)cyclopropyl]phenyl}-1,2,4-oxadiazol-5-yl)-1H-pyrazol-1-yl]methyl}phenyl)piperidine-4-carbonitrile]

IC50 [1]: 0.5 nM
Compound: Cc1cc(-c2nc(-c3ccc(C4(C(F)(F)F)CC4)cc3)no2)nn1Cc1cccc(N2CCC(O)CC2)c1 [Example 9, 1-(3-{[5-Methyl-3-(3-{4-[1-(trifluoromethyl)cyclopropyl]phenyl}-1,2,4-oxadiazol-5-yl)-1H-pyrazol-1-yl]methyl}phenyl)piperidin-4-ol]

IC50 [1]: 0.4 nM
Compound: Cc1cc(-c2nc(-c3ccc(C(C)(C)C(F)(F)F)cc3)no2)nn1Cc1cccc(N2CCC(O)CC2)c1 [Example 10, 1-{3-[(5-Methyl-3-{3-[4-(1,1,1-trifluoro-2-methylpropan-2-yl)phenyl]-1,2,4-oxadiazol-5-yl}-1H-pyrazol-1-yl)methyl]phenyl}piperidin-4-ol]

IC50 [1]: 0.5 nM
Compound: Cc1cc(-c2nc(-c3ccc(SC(F)(F)F)cc3)no2)nn1Cc1cccc(N2CCC(O)CC2)c1 [Example 14, 1-(3-{[5-Methyl-3-(3-{4-[(trifluoromethyl)sulphanyl]phenyl}-1,2,4-oxadiazol-5-yl)-1H-pyrazol-1-yl]methyl}phenyl)piperidin-4-ol]

IC50 [1]: 0.4 nM
Compound: Cc1cc(-c2nc(-c3ccc(OC(F)(F)F)cc3)no2)nn1Cc1cccc(N2CCC(C#N)CC2)c1 [Example 11, 1-{3-[(5-Methyl-3-{3-[4-(trifluoromethoxy)phenyl]-1,2,4-oxadiazol-5-yl}-1H-pyrazol-1-yl)methyl]phenyl}piperidine-4-carbonitrile]

IC50 [1]: 0.6 nM
Compound: Cc1cc(-c2nc(-c3ccc(OC(F)(F)F)cc3)no2)nn1Cc1cccc(N2CCC(O)CC2)c1 [Example 8, 1-{3-[(5-Methyl-3-{3-[4-(trifluoromethoxy)phenyl]-1,2,4-oxadiazol-5-yl}-1H-pyrazol-1-yl)methyl]phenyl}piperidin-4-ol]

prodrug compound in plasma ([2]; p.o., 1 mg/kg as tylose suspension, all times examined): not detectable
% Example 15 prodrug ([3]; pH 2, 37°C, after 12 h): 89%
% Example 15 prodrug ([3]; pH 4, 37°C, after 12 h): 89%
% Example 15 prodrug ([3]; pH 6.5, 37°C, 0 h): 94%
% Example 15 prodrug ([3]; pH 6.5, 37°C, 2 h): 91%
% Example 15 prodrug ([3]; pH 6.5, 37°C, 4 h): 87%
% Example 15 prodrug ([3]; pH 6.5, 37°C, 6 h): 84%
% Example 15 prodrug ([3]; pH 6.5, 37°C, 12 h): 73%
% Example 15 prodrug ([3]; pH 6.5, 37°C, 24 h): 56%
% Example 15 prodrug ([3]; pH 8, 37°C, after 12 h): 64%
% Example 15 prodrug ([3]; pH 10, 37°C, after 12 h): 0%
% Example 15 prodrug ([4]; 0 h): 95%
% Example 15 prodrug ([4]; 0.5 h): 87%
% Example 15 prodrug ([4]; 1 h): 80%
% Example 15 prodrug ([4]; 1.5 h): 72%
% Example 15 prodrug ([4]; 2 h): 69%
% Example 15 prodrug ([4]; 4 h): 52%
% Example 15 prodrug ([5]; 0 h): 97%
% Example 15 prodrug ([5]; 0.5 h): 96%
% Example 15 prodrug ([5]; 1 h): 93%
% Example 15 prodrug ([5]; 1.5 h): 91%
% Example 15 prodrug ([5]; 2 h): 89%
% Example 15 prodrug ([5]; 4 h): 81%
melting point: 117 °C
Compound: Cc1cc(-c2nc(-c3ccc(OC(F)(F)F)cc3)no2)nn1Cc1cccc(N2CC(OC(=O)CN(C)C)C2)c1 [Example 15, 1-{3-[(5-Methyl-3-{3-[4-(trifluoromethoxy)phenyl]-1,2,4-oxadiazol-5-yl}-1H-pyrazol-1-yl)methyl]phenyl}azetidin-3-yl N,N-dimethylglycinate]

IC50 [1]: 0.3 nM
Compound: Cc1cc(-c2nc(-c3ccc(C(C)(C)C(F)(F)F)cc3)no2)nn1Cc1cccc(N2CCC(C#N)CC2)c1 [Example 13, 1-{3-[(5-Methyl-3-{3-[4-(1,1,1-trifluoro-2-methylpropan-2-yl)phenyl]-1,2,4-oxadiazol-5-yl}-1H-pyrazol-1-yl)methyl]phenyl}piperidine-4-carbonitrile]

IC50 ([1]; comparison compound): 30 nM
clearance [6]: 6.67 mL/min/kg
AUCnorm (dose-normalized exposure) ([2]; p.o.): 1.9 kg·h/L
bioavailability [2]: 74%
Compound: Cc1ccc(Cn2nc(-c3nc(-c4ccc(OC(F)(F)F)cc4)no3)cc2C)cc1 [Example 1 in WO 2008/141731-A2, 5-[5-methyl-1-(4-methylbenzyl)-1H-pyrazol-3-yl]-3-[4-(trifluoromethoxy)phenyl]-1,2,4-oxadiazole, reference compound]

IC50 [1]: 0.6 nM
Compound: Cc1cc(-c2nc(-c3ccc(C(C)(C)C(F)(F)F)cc3)no2)nn1Cc1cccc(N2CC(O)C2)c1 [Example 3, 1-{3-[(5-Methyl-3-{3-[4-(1,1,1-trifluoro-2-methylpropan-2-yl)phenyl]-1,2,4-oxadiazol-5-yl}-1H-pyrazol-1-yl)methyl]phenyl}azetidin-3-ol]
